ChEMBL document CHEMBL1147782, “Peptide inhibitors of dengue virus NS3 protease. Part 2: SAR study of tetrapeptide aldehyde inhibitors” (Bioorg Med Chem Lett, 2006)
Square brackets hold non-standard residues; d marks the D form. Peptide text beside a SMILES is read from it. * marks the point of attachment. Phe(4-guanidino) = N=C(N)Nc1ccc(C[C@H](N)C(=O)O)cc1; Bip = N[C@@H](Cc1ccc(-c2ccccc2)cc1)C(=O)O; Phe(4-CN) = N#Cc1ccc(C[C@H](N)C(=O)O)cc1; Phe(4-Cl) = N[C@@H](Cc1ccc(Cl)cc1)C(=O)O; Phe(4-Me) = Cc1ccc(C[C@H](N)C(=O)O)cc1; NMeR = CN[C@@H](CCCNC(=N)N)C(=O)O; hPhe = N[C@@H](CCc1ccccc1)C(=O)O; NMeK = CN[C@@H](CCCCN)C(=O)O; NMeNle = CCCC[C@H](NC)C(=O)O; Phg = N[C@H](C(=O)O)c1ccccc1; dNle = CCCC[C@@H](N)C(=O)O; Nle = CCCC[C@H](N)C(=O)O; Bz = O=C(c1ccccc1)*

biological target: Genome polyprotein (dengue virus type 2, UniProt P29990); assay: Inhibitory activity against dengue 2 NS3 protease fused via a linker to region of NS2B
Sequence (P29990 1346-1475 limits assumed): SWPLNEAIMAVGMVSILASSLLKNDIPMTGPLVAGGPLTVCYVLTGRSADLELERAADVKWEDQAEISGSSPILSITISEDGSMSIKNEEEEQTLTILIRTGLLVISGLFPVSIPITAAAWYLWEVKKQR
Sequence (P29990 1476-2093 limits assumed): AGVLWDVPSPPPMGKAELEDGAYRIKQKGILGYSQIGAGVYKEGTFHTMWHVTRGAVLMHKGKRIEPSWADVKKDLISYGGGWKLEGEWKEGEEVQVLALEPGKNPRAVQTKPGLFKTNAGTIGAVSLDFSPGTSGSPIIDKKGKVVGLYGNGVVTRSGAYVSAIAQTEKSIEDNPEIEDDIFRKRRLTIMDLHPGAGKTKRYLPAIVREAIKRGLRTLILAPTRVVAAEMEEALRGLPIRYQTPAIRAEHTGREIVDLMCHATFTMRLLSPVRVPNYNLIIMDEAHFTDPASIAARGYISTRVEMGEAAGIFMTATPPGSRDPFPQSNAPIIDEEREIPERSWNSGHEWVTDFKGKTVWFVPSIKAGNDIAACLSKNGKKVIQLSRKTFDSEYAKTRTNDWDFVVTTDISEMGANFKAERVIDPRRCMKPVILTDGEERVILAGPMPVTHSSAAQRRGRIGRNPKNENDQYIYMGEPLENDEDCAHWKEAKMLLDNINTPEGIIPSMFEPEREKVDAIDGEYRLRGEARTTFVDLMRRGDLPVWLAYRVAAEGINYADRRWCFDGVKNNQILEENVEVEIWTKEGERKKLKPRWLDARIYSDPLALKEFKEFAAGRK

SMILES | Ki
CCCC[C@H](NC(=O)c1ccccc1)C(=O)N[C@@H](CCCCN)C(=O)N[C@H](CCCN=C(N)N)C(=O)N[C@H](C=O)CCCN=C(N)N (Bz-[Nle]K[dR]R-aldehyde) | 115 µM
CCCC[C@H](NC(=O)c1ccccc1)C(=O)N[C@@H](CCCCN)C(=O)N[C@@H](CCCN=C(N)N)C(=O)N[C@H](C=O)Cc1ccc(C)cc1 (Bz-[Nle]KR[Phe(4-Me)]-aldehyde) | 6 µM
CCCC[C@H](NC(=O)c1ccccc1)C(=O)N[C@@H](CCCCN)C(=O)N[C@@H](CCCN=C(N)N)C(=O)N[C@@H](C)C=O (Bz-[Nle]KRA-aldehyde) | 193 µM
CCCC[C@H](NC(=O)c1ccccc1)C(=O)N[C@@H](CCCCN)C(=O)N[C@@H](Cc1ccccc1)C(=O)N[C@H](C=O)CCCNC(=N)N (Bz-[Nle]KFR-aldehyde) | 40.7 µM
CCCC[C@H](NC(=O)c1ccccc1)C(=O)N[C@@H](CCCCN)C(=O)N[C@@H](CCCNC(=N)N)C(=O)N[C@H](C=O)Cc1ccc(NC(=N)N)cc1 (Bz-[Nle]KR[Phe(4-guanidino)]-aldehyde) | 2.8 µM
CCCC[C@H](NC(=O)c1ccccc1)C(=O)N[C@H](CCCCN)C(=O)N[C@@H](CCCN=C(N)N)C(=O)N[C@H](C=O)CCCN=C(N)N (Bz-[Nle][dK]RR-aldehyde) | 28.6 µM
C[C@H](NC(=O)c1ccccc1)C(=O)N[C@@H](CCCCN)C(=O)N[C@@H](CCCN=C(N)N)C(=O)N[C@H](C=O)CCCN=C(N)N (Bz-AKRR-aldehyde) | 5.3 µM
CCCC[C@H](NC(=O)c1ccccc1)C(=O)N[C@@H](CCCCN)C(=O)N[C@@H](CCCCN)C(=O)N[C@H](C=O)CCCNC(=N)N (Bz-[Nle]KKR-aldehyde) | 41.3 µM
CCCC[C@H](NC(=O)c1ccccc1)C(=O)N[C@@H](CCCCN)C(=O)N(C)[C@@H](CCCN=C(N)N)C(=O)N[C@H](C=O)CCCN=C(N)N (Bz-[Nle]K[NMeR]R-aldehyde) | 47.4 µM
CCCC[C@H](NC(=O)c1ccccc1)C(=O)N[C@@H](CCCCN)C(=O)N[C@@H](CCCN=C(N)N)C(=O)N[C@H](C=O)CCc1ccccc1 (Bz-[Nle]KR[hPhe]-aldehyde) | > 500 µM
CCCC[C@H](NC(=O)c1ccccc1)C(=O)N[C@@H](CCCCN)C(=O)N[C@@H](CCCN=C(N)N)C(=O)N[C@H](C=O)Cc1ccc(C#N)cc1 (Bz-[Nle]KR[Phe(4-CN)]-aldehyde) | 18.6 µM
CCCC[C@H](NC(=O)c1ccccc1)C(=O)N[C@@H](CCCCN)C(=O)N[C@@H](C)C(=O)N[C@H](C=O)CCCN=C(N)N (Bz-[Nle]KAR-aldehyde) | > 500 µM
CCCC[C@H](NC(=O)c1ccccc1)C(=O)N[C@@H](CCCCN)C(=O)N[C@@H](CCCN=C(N)N)C(=O)N[C@H](C=O)Cc1c[nH]c2ccccc12 (Bz-[Nle]KRW-aldehyde) | 7.5 µM
CCCC[C@H](NC(=O)c1ccccc1)C(=O)N[C@@H](CCCCN)C(=O)N[C@@H](CCCN=C(N)N)C(=O)N[C@@H](C=O)CCCN=C(N)N (Bz-[Nle]KR[dR]-aldehyde) | 51 µM
NCCCC[C@H](NC(=O)[C@H](Cc1ccccc1)NC(=O)c1ccccc1)C(=O)N[C@@H](CCCN=C(N)N)C(=O)N[C@H](C=O)CCCN=C(N)N (Bz-FKRR-aldehyde) | 6.8 µM
CCCC[C@H](NC(=O)c1ccccc1)C(=O)N[C@@H](CCCCN)C(=O)N[C@@H](CCCN=C(N)N)C(=O)N[C@H](C=O)Cc1ccc(Cl)cc1 (Bz-[Nle]KR[Phe(4-Cl)]-aldehyde) | 138 µM
CCCC[C@H](NC(=O)c1ccccc1)C(=O)N[C@@H](CCCCN)C(=O)N[C@@H](CCCN=C(N)N)C(=O)N[C@H](C=O)Cc1ccc(-c2ccccc2)cc1 (Bz-[Nle]KR[Bip]-aldehyde) | 11.6 µM
CCCC[C@H](NC(=O)c1ccccc1)C(=O)N[C@@H](CCCCN)C(=O)N[C@@H](CCCN=C(N)N)C(=O)N[C@H](C=O)Cc1ccccc1 (Bz-[Nle]KRF-aldehyde) | 15.9 µM
CCCC[C@@H](NC(=O)c1ccccc1)C(=O)N[C@@H](CCCCN)C(=O)N[C@@H](CCCN=C(N)N)C(=O)N[C@H](C=O)CCCN=C(N)N (Bz-[dNle]KRR-aldehyde) | 9.4 µM
CCCC[C@H](NC(=O)c1ccccc1)C(=O)N[C@@H](CCCCN)C(=O)N1CCC[C@H]1C(=O)N[C@H](C=O)CCCN=C(N)N (Bz-[Nle]KPR-aldehyde) | 109 µM
CCCC[C@H](NC(=O)c1ccccc1)C(=O)N[C@@H](CCCCN)C(=O)N[C@@H](CCCNC(=N)N)C(=O)N[C@H](C=O)CCCNC(=N)N (Bz-[Nle]KRR-aldehyde) | 5.8 µM
NC(N)=NCCC[C@@H](C=O)NC(=O)[C@H](CCCN=C(N)N)NC(=O)c1ccccc1 (Bz-Arg-Arg-aldehyde) | 12 µM
CCCC[C@@H](C(=O)N[C@@H](CCCCN)C(=O)N[C@@H](CCCN=C(N)N)C(=O)N[C@H](C=O)CCCN=C(N)N)N(C)C(=O)c1ccccc1 (Bz-[NMeNle]KRR-aldehyde) | 43.7 µM
CCCC[C@H](NC(=O)c1ccccc1)C(=O)N1CCC[C@H]1C(=O)N[C@@H](CCCN=C(N)N)C(=O)N[C@H](C=O)CCCN=C(N)N (Bz-[Nle]PRR-aldehyde) | 61.4 µM
CCCC[C@H](NC(=O)c1ccccc1)C(=O)N(C)[C@@H](CCCCN)C(=O)N[C@@H](CCCN=C(N)N)C(=O)N[C@H](C=O)CCCN=C(N)N (Bz-[Nle][NMeK]RR-aldehyde) | 113 µM
CCCC[C@H](NC(=O)c1ccccc1)C(=O)N[C@@H](CCCCN)C(=O)N[C@@H](CCCN=C(N)N)C(=O)N[C@H](C=O)c1ccccc1 (Bz-[Nle]KR[Phg]-aldehyde) | 33 µM
NCCCC[C@H](NC(=O)c1ccccc1)C(=O)N[C@@H](CCCN=C(N)N)C(=O)N[C@H](C=O)CCCN=C(N)N (Bz-Lys-Arg-Arg-aldehyde) | 1.5 µM
CCCC[C@H](NC(=O)c1ccccc1)C(=O)N[C@@H](Cc1ccccc1)C(=O)N[C@@H](CCCN=C(N)N)C(=O)N[C@H](C=O)CCCN=C(N)N (Bz-[Nle]FRR-aldehyde) | 15.8 µM
CCCC[C@H](NC(=O)c1ccccc1)C(=O)N[C@@H](CCCCN)C(=O)N[C@@H](CCCN=C(N)N)C(=O)N[C@H](C=O)CCCCN (Bz-[Nle]KRK-aldehyde) | 20.5 µM
CCCC[C@H](NC(=O)c1ccccc1)C(=O)N[C@@H](C)C(=O)N[C@@H](CCCN=C(N)N)C(=O)N[C@H](C=O)CCCN=C(N)N (Bz-[Nle]ARR-aldehyde) | 22.1 µM
